Assay results from US9730945B2, “Diagnosis of autism spectrum disorders and its treatment with an antagonist or inhibitor of the 5-HT2c receptor signaling pathway” (Massachusetts Institute of Technology, priority 2009, dated 2017).
Entries after “also recorded” stand apart in the source; their conditions may differ.

Test system: Pten haploinsufficient mice
Experiment: Social approach behavior assay (three-chamber apparatus)
Assay type: in vivo
Conditions: female Pten haploinsufficient mice, 8 weeks of age, IP 0.3 mg/kg, 20 minutes prior to assay, quantified over 10 minutes, preliminary test
Experimental: FIG. 5: Effects of the 5-HT2cR antagonist SB 242084 on social approach behavior in Pten haploinsufficient mice. The mice tested were female littermates, 8 weeks of age. The mice were given an IP injection of 0.3 mg/kg of SB 242084 or vehicle, 20 minutes prior to start of the assay. A social stimulus mouse was placed in chamber 1 and an identical empty cage was placed in chamber 3. The percent time the subject mouse spent interacting with the stimulus mouse was quantified over 10 minutes. […] For vehicle treated groups, n=6; for SB 242084-treated groups, n=8. * P<0.05, ANOVA within group comparison between chamber 1 and chamber 3. In each group of bars, the order is: left bar=chamber 1, middle bar=chamber 2, right bar=chamber 3.
A mouse was placed in an open top acrylic box (24″L×12″W×12″H) with opaque walls. The box was divided into three (8″L×12″W) chambers separated by opaque acrylic panels with holes providing passage between chambers. For reference, the chambers were numbered, from left to right 1, 2, and 3. […] The resulting video was scored with computer assistance by importing into ImageJ software (http://rsb.info.nih.gov/ij/), where each chamber was defined as a region of interest using a script written in-house, and the number of frames in which the mouse was in each region of interest was quantified. […]

Cc1cc2c(cc1Cl)N(C(=O)Nc1ccc(Oc3cccnc3C)nc1)CC2 [SB 242084, 6-Chloro-5-methyl-1-[[2-(2-methylpyrid-3-yloxy)pyrid-5-yl]carbamoyl]indoline]
social approach behavior (percent time interacting with stimulus mouse, chamber 1 vs chamber 3): can offset deficits in social approach behavior; also recorded: significant preference for interacting with the stimulus mouse
